For experiment [1], the system named is Sprague-Dawley rats. Description: Bone calcium mobilization (serum calcium) in vitamin D-deficient rats. The format is in vivo, rat. The note with it: for bone calcium mobilization (serum calcium): rats on 0.02% Ca diet. Here is the method: (§1) Male, weanling Sprague-Dawley rats were placed on Diet 11 (0.47% Ca) diet+AEK for one week followed by Diet 11 (0.02% Ca)+AEK for 3 weeks. The rats were then switched to a diet containing 0.47% Ca for one week followed by two weeks on a diet containing 0.02% Ca. Dose administration began during the last week on 0.02% calcium diet. Four consecutive ip doses were given approximately 24 hours apart. Twenty-four hours after the last dose, blood was collected from the severed neck and the concentration of serum calcium determined as a measure of bone calcium mobilization. The first 10 cm of the intestine was also collected for intestinal calcium transport analysis using the everted gut sac method.

Experiment [2] deals with Sprague-Dawley rats. Description: Intestinal calcium transport (everted gut sac method) in vitamin D-deficient rats. The format is in vivo, rat. The note with it: for intestinal calcium transport: everted gut sac. How it is done: as §1
Experiment [3] has as its system Sprague-Dawley rats. Description: PTH suppression (bioactive serum PTH, ELISA). The format is in vivo, rat. Here is the method: Adult, female Sprague-Dawley rats were obtained from Harlan (Madison, Wis.). Upon receipt, the animals were identified by individual tail marks. Animals were housed in suspended, stainless steel, wire-bottom cages. Each cage contained one animal. The animal rooms were maintained at a temperature of 68 to 72° F. and a relative humidity of 25 to 75%. The holding rooms were set to provide 12 hours of light per day. Water and a purified rodent diet (Suda et al., Purified Rodent Diet-Diet 11) containing […] 0.3% phosphorus and fat soluble vitamins A, D, E and K were provided ad libitum. Treatment Groups Animals were randomly assigned to treatment groups (5 animals/group). All doses were administered intraperitoneally in 100 microliters of propylene glycol. Four to seven consecutive doses were given approximately 24 hours apart. Dosing was initiated after the animals had been allowed to acclimate for at least one week. Dose Preparation Control Material Negative Control Material […] The solution was mixed and then stored at 2 to 8° C. The analogs were prepared by first determining the concentration of an ethanol stock solution using UV spectrophotometry (extinction coefficient=42,000; λmax=252 nm). The analog solutions were then volumetrically added to propylene glycol so that there was less than 5% ethanol in the final solution. The solution was mixed and stored at 2 to 8° C. […] Serum PTH Levels. Twenty-four hours after the final dose, blood was collected from the tail artery and the concentration of bioactive serum PTH was measured using the rat BioActive Intact PTH ELISA Kit from Immutopics, Inc. (San Clemente, Calif.). Serum Calcium Analysis Twenty-four hours after the final dose, approximately 1 ml of blood was collected from the tail artery of each experimental animal. The blood was allowed to coagulate at room temperature and then centrifuged at 3000×g for 15 minutes. The serum was transferred to a polypropylene tube and stored frozen at −20° C. The level of calcium was determined by diluting the serum into 0.1% lanthum chloride and measuring the absorbance on an atomic absorption spectrophotometer (Perkin Elmer Model 3110, Shelton, Conn.).
(In an ELISA, binding on a coated surface is turned into a signal by an enzyme label.)

Experiment [4] concerns 24-hydroxylase (24Ohase) gene promoter in ROS 17/2.8 (bone) cells. Description: In vitro transcription assay (24-hydroxylase promoter luciferase reporter). It counts as cell-based. The following applies: ROS 17/2.8 cells, 16 h, FIG. 3, read-out: EC50, transcriptional activity in bone cells. Here is the method:
Transcription activity was measured in ROS 17/2.8 (bone) cells that were stably transfected with a 24-hydroxylase (24Ohase) gene promoter upstream of a luciferase reporter gene (Arbour et al., 1998). Cells were given a range of doses. Sixteen hours after dosing the cells were harvested and luciferase activities were measured using a luminometer.
RLU=relative luciferase units.
(Reporter assays use an easily measured gene product as a stand-in for the process of interest.)

For experiment [5], the system named is Human promyelocytic leukemia (HL60) cells. Description: HL-60 differentiation (nitro blue tetrazolium reduction). It counts as cell-based. The following applies: FIG. 2; for EC50: HL60 cells, 4 days, NBT reduction. How it is done: The study drugs were dissolved in ethanol and the concentrations determined using UV spectrophotometry. Serial dilutions were prepared so that a range of drug concentrations could be tested without changing the final concentration of ethanol (≦0.2%) present in the cell cultures.
Human promyelocytic leukemia (HL60) cells were grown in RPMI-1640 medium containing 10% fetal bovine serum. The cells were incubated at 37° C. in the presence of 5% CO2.
HL60 cells were plated at 1.2×10^5 cells/ml. Eighteen hours after plating, cells in duplicate were treated with drug. Four days later, the cells were harvested and a nitro blue tetrazolium reduction assay was performed (Collins et al., 1979; J. Exp. Med. 149:969-974). The percentage of differentiated cells was determined by counting a total of 200 cells and recording the number that contained intracellular black-blue formazan deposits. Verification of differentiation to monocytic cells was determined by measuring phagocytic activity (data not shown).

Experiment [6] concerns the target T1, full-length recombinant rat vitamin D receptor (Rattus norvegicus, UniProt P13053).
T1 construct: Full-length recombinant rat receptor was expressed in E. coli; histidine tag (C); made in house; host or cells: E. coli BL21 (DE3) Codon Plus RIL
T1 sequence (P13053 1-423): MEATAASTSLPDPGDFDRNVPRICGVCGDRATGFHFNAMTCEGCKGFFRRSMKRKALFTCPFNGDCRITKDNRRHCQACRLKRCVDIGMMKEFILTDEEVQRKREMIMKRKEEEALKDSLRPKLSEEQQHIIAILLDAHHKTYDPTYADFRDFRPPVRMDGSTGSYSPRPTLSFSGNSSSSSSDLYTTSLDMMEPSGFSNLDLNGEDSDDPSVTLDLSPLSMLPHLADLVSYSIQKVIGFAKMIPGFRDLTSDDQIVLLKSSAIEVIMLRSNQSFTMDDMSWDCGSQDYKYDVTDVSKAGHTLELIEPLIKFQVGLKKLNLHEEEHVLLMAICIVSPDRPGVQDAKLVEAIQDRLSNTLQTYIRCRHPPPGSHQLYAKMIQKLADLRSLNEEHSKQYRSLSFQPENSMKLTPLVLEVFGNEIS
The experiment can be described thus: Vitamin D receptor binding, competition with [3H]-1,25(OH)2D3. The note with it: FIG. 1. How it is done: Full-length recombinant rat receptor was expressed in E. coli BL21 (DE3) Codon Plus RIL cells and purified to homogeneity using two different column chromatography systems. The first system was a nickel affinity resin that utilizes the C-terminal histidine tag on this protein. The protein that was eluted from this resin was further purified using ion exchange chromatography (S-Sepharose Fast Flow). Aliquots of the purified protein were quick frozen in liquid nitrogen and stored at −80° C. until use. For use in binding assays, the protein was diluted in TEDK50 (50 mM Tris, 1.5 mM EDTA, pH7.4, 5 mM DTT, 150 mM KCl) with 0.1% Chaps detergent. The receptor protein and ligand concentration were optimized such that no more than 20% of the added radiolabeled ligand was bound to the receptor.
Radiolabeled and unlabeled ligands were added to 100 mcl of the diluted protein at a final ethanol concentration of ≦10%, mixed and incubated overnight on ice to reach binding equilibrium. The following day, 100 mcl of hydroxylapatite slurry (50%) was added to each tube and mixed at 10-minute intervals for 30 minutes. The hydroxylapaptite was collected by centrifugation and then washed three times with Tris-EDTA buffer (50 mM Tris, 1.5 mM EDTA, pH 7.4) containing 0.5% Titron X-100. […] Total binding was determined from the tubes containing only radiolabeled ligand.

As a reminder, the EC50 is the midpoint of the concentration-response curve. As for `C=C1/C(=C\C=C2/CCC[C@]3(C)[C@@H]([C@H](C)CCCC(C)(C)O)CC[C@@H]23)C[C@@H](O)C[C@@H]1O` [1,25(OH)2D3, 1α,25-dihydroxyvitamin D3, reference compound], in the experiment on Sprague-Dawley rats [1] (all dosages tested), the “bone calcium mobilization (serum calcium)” value is recorded as “increased serum calcium levels”. For the same compound, the intestinal calcium transport result with Sprague-Dawley rats [2] (260 pmol/day ip) is on record as “promotes a significant increase”. The PTH suppression in the experiment with Sprague-Dawley rats [3] (100 pmol/day ip, 4 consecutive days) is given as 100%. Moreover, the EC50 in experiment [4] came to 0.29 nM; in experiment [5] it was 3.6 nM.
By Ki is commonly meant the equilibrium dissociation constant of an inhibitor or competing ligand from its target. For `CC(C)C1CCC2C(=CC=C3CC(O)C(C)C(O)C3)CCCC21C` (stereo not drawn) [2α-methylP, 2α-methyl-19-nor-1α-hydroxy-homopregnacalciferol], the “bone calcium mobilization (serum calcium)” value with Sprague-Dawley rats [1] (87 pmol/day ip, 4 consecutive days) is listed as “did not result in mobilization of bone calcium”; with Sprague-Dawley rats [1] (260 pmol/day ip, 4 consecutive days), “without any substantial effect”; with Sprague-Dawley rats [1] (780 pmol/day ip, 4 consecutive days), “without any substantial effect”; with Sprague-Dawley rats [1] (2340 pmol/day ip, 4 consecutive days), “without any substantial effect”. In the experiment with Sprague-Dawley rats [1] (overall, FIG. 4), the “bone calcium mobilization activity compared to 1,25(OH)2D3 (in words)” value was “very little bone calcium mobilization activity”. Moreover, the intestinal calcium transport result in the experiment on Sprague-Dawley rats [2] (87 pmol/day ip), in the experiment on Sprague-Dawley rats [2] (260 pmol/day ip), with Sprague-Dawley rats [2] (780 pmol/day ip) and with Sprague-Dawley rats [2] (2340 pmol/day ip) was “does not promote intestinal calcium transport” in each case. In addition, the “intestinal calcium transport activity compared to 1,25(OH)2D3 (in words)” value in the experiment on Sprague-Dawley rats [2] (overall, FIG. 5) was “very little activity”. In addition, the PTH suppression entry in the experiment on Sprague-Dawley rats [3] (500 pmol/day ip, 7 consecutive days) was “about 20%”; in the experiment with Sprague-Dawley rats [3] (1500 pmol/day ip, 7 consecutive days), “about 20%”; in the experiment on Sprague-Dawley rats [3] (4500 pmol/day ip, 7 consecutive days), “about 60%”. For the same compound, the “PTH suppression compared to 1,25(OH)2D3 (in words)” value with Sprague-Dawley rats [3] (FIG. 6) is given as “not as potently as 1,25(OH)2D3”. Further, the EC50 in experiment [4] amounted to 3.3 nM; in experiment [5] (Homo sapiens, HL-60, 96 h), 38 nM. The “HL-60 cell differentiation potency compared to 1,25(OH)2D3 (in words)” value in experiment [5] is recorded as “almost as potent as 1,25(OH)2D3”. In experiment [6], the “VDR binding compared to 1,25-(OH)2D3 (in words)” value is recorded as “bound equally well”. In addition, the Ki in experiment [6] (full-length recombinant rat VDR) stood at 0.94 nM.

The values are drawn from patent US8399438B2, “2α-methyl-19-nor-1α-hydroxy-homopregnacalciferol and its uses” (Wisconsin Alumni Research Foundation, priority 2004, dated 2013).
